Measurements as given in patent US20050101595A1, “N-containing cycloalkyl-substituted amino-thiazole derivatives and pharmaceutical compositions for inhibiting cell proliferation and methods for their use” (PFIZER INC., priority 2003, published 2005).
Where a name gives a salt, the structure may show the parent alone. Read-outs that look alike come from different tables or passages of the source. Each block holds one molecule with its values, some of them ahead of it.

Columns and labels:
CDK2/Cyclin A = CDK2/Cyclin A (Homo sapiens, UniProt P24941); experiment: Inhibition of CDK2/Cyclin A Retinoblastoma Kinase Activity; format: biochemical; details: for CDK2 % Inhibition At 0.03 μM: Table 2
In short: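 Human CDK2, baculovirus/insect-cell expressed, complexed with proteolyzed cyclin A (10 nM or 19 nM CDK2) phosphorylates an Rb fragment with 25 μM [32P/33P]ATP at pH 7.4, 30° C, for 60 or 75 minutes under initial-rate conditions. Filter-captured radioactivity is read by phosphorimager; apparent Ki from competitive-inhibition fits.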

[1] = molecular target: human CDK4 and genetically truncated (1-264) cyclin D3 (Homo sapiens, UniProt P11802); experiment: Inhibition of CDK4/Cyclin D Retinoblastoma Kinase Activity; format: biochemical
In short: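 Read-out: 32P/33P incorporation into Rb fragment (386-928) captured on nitrocellulose, phosphorimager. Enzyme 5 nM CDK4/cyclin D3(1-264) from insect cells; ATP 25 μM, pH 7.4, 30 °C, 20 min (60 min for tight binders). Ki from competitive fits.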

HCT-116 cell line = experiment: Inhibition of cell growth, tetrazolium salt (MTT) assay; format: cell-based; details: for HCT-116 % Inhibition at 0.25 μM: 0.25 μM compound; for IC50: Homo sapiens, HCT-116, 120 h, MTT, three to five days, read-out: HCT-116 IC50
In short: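 HCT-116 cells in McCoy's 5A medium received compound 4 h after plating (0.5% v/v DMSO) and were incubated three to five days at 37° C, 5% CO2. MTT (0.2 mg/mL final) then added for 4 h; DMSO-solubilized formazan read at 540 nm against 0.5% DMSO-treated controls.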

[2] = 0.1 μM compound, HCT-116, Table 3
[3] = 0.1 μM compound, HCT-116, Table 4

Sequence of human CDK4 and genetically truncated (1-264) cyclin D3 (P11802 whole entry, the tested form may be a part): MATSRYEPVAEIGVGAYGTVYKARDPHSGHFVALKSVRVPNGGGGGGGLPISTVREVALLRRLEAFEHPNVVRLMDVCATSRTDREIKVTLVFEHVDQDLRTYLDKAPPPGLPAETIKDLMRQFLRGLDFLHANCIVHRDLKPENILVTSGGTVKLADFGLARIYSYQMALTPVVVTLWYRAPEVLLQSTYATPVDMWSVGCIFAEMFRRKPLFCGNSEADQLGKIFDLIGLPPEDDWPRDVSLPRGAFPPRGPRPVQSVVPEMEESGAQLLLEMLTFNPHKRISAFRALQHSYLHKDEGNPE
Sequence of human CDK4 and genetically truncated (1-264) cyclin D3 (P30281 1-264 partner): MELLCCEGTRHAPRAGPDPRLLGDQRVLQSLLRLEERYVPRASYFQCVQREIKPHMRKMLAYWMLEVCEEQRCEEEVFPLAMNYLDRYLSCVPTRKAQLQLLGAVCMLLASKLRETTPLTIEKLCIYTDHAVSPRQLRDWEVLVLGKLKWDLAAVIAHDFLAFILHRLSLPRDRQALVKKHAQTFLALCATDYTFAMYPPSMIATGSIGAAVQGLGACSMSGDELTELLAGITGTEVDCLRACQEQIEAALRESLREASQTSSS

SMILES: Nc1nc(NC2CCN(S(=O)(=O)c3cccc(Br)c3)CC2)sc1C(=O)c1c(F)cccc1F [Example P46]
- CDK2 % Inhibition at 0.03 μM (CDK2/Cyclin A; 0.03 μM compound, Table 3): 59%
- CDK4 % Inhibition at 0.03 μM ([1]; 0.03 μM compound, Table 3): 68%
- HCT-116 % Inhibition at 0.1 μM (HCT-116 cell line; [2]): 10%
- HCT-116 % Inhibition at 0.25 μM (HCT-116 cell line; HCT-116, Table 3): 20%

SMILES: CN(C)c1ccc(N=Nc2ccc(S(=O)(=O)N3CCC(Nc4nc(N)c(C(=O)c5c(F)cccc5F)s4)CC3)cc2)cc1 [Example P18]
- CDK2 % Inhibition at 0.03 μM (CDK2/Cyclin A; 0.03 μM compound, Table 3): −20%
- CDK4 % Inhibition at 0.03 μM ([1]; 0.03 μM compound, Table 3): 6%
- HCT-116 % Inhibition at 0.1 μM (HCT-116 cell line; [2]): 20%
- HCT-116 % Inhibition at 0.25 μM (HCT-116 cell line; HCT-116, Table 3): 36%

SMILES: CN1CCN(c2ncc(S(=O)(=O)N3CCC(Nc4nc(N)c(C(=O)c5c(F)cccc5F)s4)CC3)cn2)CC1 [Example G34, (4-Amino-2-{1-[2-(4-methyl-piperazin-1-yl)-pyrimindine-5-sulfonyl]-piperidin-4-ylamino}-thiazol-5-yl)-(2,6-difluoro-phenyl)-methanone Hydrochloride Salt]
- Ki (CDK2/Cyclin A; apparent Ki, CDK2/proteolyzed cyclin A, Rb fragment substrate, 25 μM ATP): 0.82 nM
- Ki ([1]; apparent Ki, CDK4/truncated cyclin D3, Rb fragment substrate, 25 μM ATP): 0.57 nM
- IC50 (HCT-116 cell line; first HCT-116 column (c4)): 40 nM
- IC50 (HCT-116 cell line; second HCT-116 column (c5)): 250 nM

SMILES: COC(=O)c1ccccc1NC(=O)N1CCC(Nc2nc(N)c(C(=O)c3c(F)cccc3F)s2)CC1 [Example O39]
- CDK2 % Inhibition At 0.03 μM (CDK2/Cyclin A; 0.03 μM compound): 32%
- CDK4 % Inhibition at 0.03 μM ([1]; 0.03 μM compound, Table 2): 13%
- HCT-116 % Inhibition at 0.25 μM (HCT-116 cell line; HCT-116, Table 2): 27%

SMILES: Cc1noc(C)c1S(=O)(=O)N1CCC(Nc2nc(N)c(C(=O)c3c(F)cccc3F)s2)CC1 [Example P51]
- CDK2 % Inhibition at 0.03 μM (CDK2/Cyclin A; 0.03 μM compound, Table 3): 3%
- CDK4 % Inhibition at 0.03 μM ([1]; 0.03 μM compound, Table 3): 27%
- HCT-116 % Inhibition at 0.1 μM (HCT-116 cell line; [2]): 18%
- HCT-116 % Inhibition at 0.25 μM (HCT-116 cell line; HCT-116, Table 3): 21%

SMILES: Nc1nc(NC2CCN(C(=O)Nc3ccc(Br)cc3)CC2)sc1C(=O)c1c(F)cccc1F [Example O18]
- CDK2 % Inhibition At 0.03 μM (CDK2/Cyclin A; 0.03 μM compound): 27%
- CDK4 % Inhibition at 0.03 μM ([1]; 0.03 μM compound, Table 2): 9%
- HCT-116 % Inhibition at 0.25 μM (HCT-116 cell line; HCT-116, Table 2): 20%

SMILES: CCCCCCCOc1ccc(NC(=O)N2CCC(Nc3nc(N)c(C(=O)c4c(F)cccc4F)s3)CC2)cc1 [Example O83]
- CDK2 % Inhibition At 0.03 μM (CDK2/Cyclin A; 0.03 μM compound): 29%
- CDK4 % Inhibition at 0.03 μM ([1]; 0.03 μM compound, Table 2): 12%
- HCT-116 % Inhibition at 0.25 μM (HCT-116 cell line; HCT-116, Table 2): 59%

Further lines, with some results ahead:

- CDK2 % Inhibition at 0.03 μM (CDK2/Cyclin A; at 0.03 μM): 53%
- CDK4 % Inhibition at 0.03 μM ([1]; at 0.03 μM): 66%
SMILES: COc1ccc(OC)c(C(=O)N2CCC(Nc3nc(N)c(C(=O)c4c(F)cccc4F)s3)CC2)c1 [Example R117]
- HCT-116 % Inhibition at 0.1 μM (HCT-116 cell line; HCT-116 cells, at 0.1 μM): 7%
- HCT-116 5 Inhibition at 0.25 μM (HCT-116 cell line; HCT-116 cells): 45

- CDK2 % Inhibition at 0.03 μM (CDK2/Cyclin A; at 0.03 μM): 23%
- CDK4 % Inhibition at 0.03 μM ([1]; at 0.03 μM): 36%
SMILES: Nc1nc(NC2CCN(C(=O)c3csc(C4COc5ccccc5O4)n3)CC2)sc1C(=O)c1c(F)cccc1F (stereo not drawn) [Example R57]
- HCT-116 % Inhibition at 0.1 μM (HCT-116 cell line; HCT-116 cells, at 0.1 μM): 0%
- HCT-116 5 Inhibition at 0.25 μM (HCT-116 cell line; HCT-116 cells): 47

- CDK2 % Inhibition at 0.03 μM (CDK2/Cyclin A; at 0.03 μM): 15%
- CDK4 % Inhibition at 0.03 μM ([1]; at 0.03 μM): 39%
SMILES: Nc1nc(NC2CCN(C(=O)CCC3CCCCC3)CC2)sc1C(=O)c1c(F)cccc1F [Example R101]
- HCT-116 % Inhibition at 0.1 μM (HCT-116 cell line; HCT-116 cells, at 0.1 μM): 7%
- HCT-116 5 Inhibition at 0.25 μM (HCT-116 cell line; HCT-116 cells): 45

- CDK2 % Inhibition at 0.03 μM (CDK2/Cyclin A; at 0.03 μM): 31%
- CDK4 % Inhibition at 0.03 μM ([1]; at 0.03 μM): 63%
SMILES: Nc1nc(NC2CCN(C(=O)c3cnc(Cl)c(Cl)c3)CC2)sc1C(=O)c1c(F)cccc1F [Example R30]
- HCT-116 % Inhibition at 0.1 μM (HCT-116 cell line; HCT-116 cells, at 0.1 μM): 13%
- HCT-116 5 Inhibition at 0.25 μM (HCT-116 cell line; HCT-116 cells): 43

- CDK2 % Inhibition at 0.03 μM (CDK2/Cyclin A; 0.03 μM compound, Table 4): 51%
- CDK4 % Inhibition at 0.03 μM ([1]; 0.03 μM compound, Table 4): 59%
SMILES: COc1cccc(CC(=O)N2CCC(Nc3nc(N)c(C(=O)c4c(F)cccc4F)s3)CC2)c1 [Example Q79]
- HCT-116 % Inhibition at 0.1 μM (HCT-116 cell line; [3]): 5%
- HCT-116 % Inhibition at 0.25 μM (HCT-116 cell line; HCT-116, Table 4): 33%

- CDK2 % Inhibition at 0.03 μM (CDK2/Cyclin A; at 0.03 μM): −15%
- CDK4 % Inhibition at 0.03 μM ([1]; at 0.03 μM): 19%
SMILES: CC(Oc1ccccc1)C(=O)N1CCC(Nc2nc(N)c(C(=O)c3c(F)cccc3F)s2)CC1 (stereo not drawn) [Example R9]
- HCT-116 % Inhibition at 0.1 μM (HCT-116 cell line; HCT-116 cells, at 0.1 μM): 5%
- HCT-116 5 Inhibition at 0.25 μM (HCT-116 cell line; HCT-116 cells): 37

- CDK2 % Inhibition at 0.03 μM (CDK2/Cyclin A; 0.03 μM compound, Table 4): −12%
- CDK4 % Inhibition at 0.03 μM ([1]; 0.03 μM compound, Table 4): 19%
SMILES: Nc1nc(NC2CCN(C(=O)c3ccccc3C(F)(F)F)CC2)sc1C(=O)c1c(F)cccc1F [Example Q16]
- HCT-116 % Inhibition at 0.1 μM (HCT-116 cell line; [3]): 11%
- HCT-116 % Inhibition at 0.25 μM (HCT-116 cell line; HCT-116, Table 4): 50%

- CDK2 % Inhibition at 0.03 μM (CDK2/Cyclin A; at 0.03 μM): 9%
- CDK4 % Inhibition at 0.03 μM ([1]; at 0.03 μM): 9%
SMILES: CC1CCC(C(C)C)C(OC(=O)N2CCC(Nc3nc(N)c(C(=O)c4c(F)cccc4F)s3)CC2)C1 (stereo not drawn) [Example R86]
- HCT-116 % Inhibition at 0.1 μM (HCT-116 cell line; HCT-116 cells, at 0.1 μM): 0%
- HCT-116 5 Inhibition at 0.25 μM (HCT-116 cell line; HCT-116 cells): 34
